Test results taken from patent US20220387483A1, “USE OF IODIDE COMPOUNDS FOR THE TREATMENT AND PREVENTION OF CHEMOTHERAPY-ASSOCIATED CACHEXIA AND CARDIOTOXICITY” (FARADAY PHARMACEUTICALS, INC., priority 2019, published 2022).

Tests used:
[1] = test system: cardiotoxicity induced by doxorubicin; test: cardiotoxicity induced by doxorubicin chemotherapy, ejection fraction via ultrasound; type: in vivo, C57Bl/6 mice
Method: Male C57Bl/6 mice (˜10 weeks old) were given a 15 mg/kg i.p. bolus of doxorubicin to induce cardiotoxicity. Assessment of ejection fraction was performed via ultrasound at baseline (day 0, prior to any doxorubicin administration) and on days 3, 7, 14 or 28 days post administration. Dosing of placebo or FDY-5301 was done in a blinded fashion, as was all ultrasound analysis.
A single 2 mg/kg i.v. bolus of FDY-5301 was administered by the retro orbital (r.o.) route and immediately followed by 15 mg/kg doxorubicin i.p. Placebo treated animals received saline. A Vevo® 2100 imaging system was used to assess cardiac function on days 0 (baseline), 7, 14, & 28.
A single 2 mg/kg i.v. bolus of NaI was administered by the retro orbital (r.o.) route followed immediately by the s.c. implantation of an osmotic pump designed to deliver 2 mg/kg/day of NaI. The mice then received a 15 mg/kg doxorubicin i.p. bolus. Placebo treated animals received saline (and an osmotic pump filled with saline). Cardiac function was assessed on days 0 (baseline), 3, 7 & 14.

[2] = test system: Balb/c mice bearing subcutaneous CT26 tumors; test: muscle histology and morphometry (muscle fiber area) in the CT26 cancer cachexia model; type: in vivo; details: for muscle fiber area, gastrocnemius / muscle fiber area, soleus: histopathological images vs vehicle control; for muscle fiber area, tibialis anterior: vs vehicle control
Method: (§1) The anti-cachectic activity of iodide was evaluated in a cancer cachexia model of Balb/c mice bearing subcutaneous CT26 tumors. NaI was administered as FDY-5301, which is sodium iodide solubilized in water and balanced with sodium chloride to create an isotonic saline solution, with a pH between 7.0 and 9.5. As shown in the experimental design depicted in FIG. 1, when tumor volume reached 100 mm^3, the mice were either left untreated, or treated with one of the following: (i) vehicle control (0.5% CMC); (ii) NaI (FDY-5301) at 2 mg/kg i.v., QD×3 weeks; (iii) bucindolol at 2 mg/kg p.o., QD×3 weeks; or (iv) NaI (FDY-5301) at 40 ug/day slow release via Alzet osmotic pump (flow rate 0.11 uL/h) s.c. for 20 days. On day 14, 1 hour post dosing, blood samples were taken from three animals from groups 2, 3, and 5. On day 20, the animals were humanely euthanized and tumor and animal characteristics were measured. Prior to euthanasia, blood samples were collected for evaluation of biochemical parameters. Following euthanasia, tumor tissue and organs, muscles were collected and weighed.
Morphometric evaluation of transverse sections of muscle fiber area (um2) was performed on tibialis anterior, gastrocnemius, and soleus muscles from the animals described in Example 1, for evaluation of anti-cachectic properties of FDY-5301 and bucindolol in the cancer cachexia model.

[3] = test system: Balb/c mice bearing subcutaneous CT26 tumors; test: cancer cachexia model of Balb/c mice bearing subcutaneous CT26 tumors; type: in vivo; details: for TNF-α level / creatine kinase level / serum LDL level / serum triglyceride level / % tumor grow inhibition (TGI) / serum VLDL level: vs vehicle control; for % tumor grow inhibition (TGI): day 20; for IL-6 level / kidney weight / lung weight / spleen weight / serum levels of TNF-α: test groups vs vehicle control; for IL-6 level: FIG. 10B; for kidney weight / lung weight / spleen weight / serum levels of TNF-α: significance; for serum levels of TNF-α: FIG. 10A; for body weight: throughout the experimental period
Method: as §1

[4] = slow release via Alzet osmotic pump

Structure (SMILES): [I-].[Na+] [FDY-5301, sodium iodide]
- ejection fraction (EF) ([1]; 2 mg/kg i.v. bolus + s.c. osmotic pump 2 mg/kg/day, 15 mg/kg doxorubicin i.p., by day 14, vs placebo): stabilized EF
- ejection fraction ([1]; combined results of bolus and bolus + continuous studies, delivered at the time of chemotherapy): prevents a significant reduction in ejection fraction
- change in ejection fraction from baseline ([1]; single 2 mg/kg i.v. bolus then 15 mg/kg doxorubicin i.p., days 7, 14, 28, vs placebo): less of a reduction in change in ejection fraction from baseline
- muscle fiber area, gastrocnemius ([2]; 40 ug/day Alzet pump): increased muscle fiber area
- muscle fiber area, soleus ([2]; 40 ug/day Alzet pump): increased muscle fiber area
- muscle fiber area, tibialis anterior ([2]; 40 ug/day slow release via Alzet osmotic pump): significant increase
- muscle fiber area, tibialis anterior ([2]; 40 ug/day slow release via Alzet osmotic pump, listed as FDY-3501): increased muscle fiber area
- muscle fiber area, gastrocnemius ([2]; 2 mg/kg i.v.): increased muscle fiber area
- muscle fiber area, soleus ([2]; 2 mg/kg i.v.): increased muscle fiber area
- muscle fiber area, tibialis anterior ([2]; 2 mg/kg i.v.): Non-significant
- muscle fiber area, tibialis anterior ([2]; 2 mg/kg i.v., listed as FDY-3501): increased muscle fiber area
- TNF-α level ([3]; 2 mg/kg i.v.): non-significantly lower
- creatine kinase level ([3]; 2 mg/kg i.v.): marginal decrease
- serum LDL level ([3]; 2 mg/kg i.v.): non-significant change
- serum triglyceride level ([3]; 2 mg/kg i.v.): marginally lower
- % tumor grow inhibition (TGI) ([3]; 40 ug/day slow release via Alzet osmotic pump s.c.): 23%
- % tumor grow inhibition (TGI) ([3]; 2 mg/kg i.v., QD×3 weeks): 31%
- TNF-α level [3, 4]: marginally higher
- serum LDL level [3, 4]: significant increase
- serum VLDL level [3, 4]: significant decrease
- serum triglyceride level [3, 4]: significantly lower
- creatine kinase level ([3]; slow release): marginal decrease
- IL-6 level [3]: Non-significant
- kidney weight [3]: Non-significant
- lung weight [3]: Non-significant
- spleen weight [3]: Non-significant
- serum levels of TNF-α [3]: Non-Significant
- body weight ([3]; 2 mg/kg i.v., QD×3 weeks): progressive body weight gain
- body weight [3, 4]: progressive body weight gain

Structure (SMILES): CC(C)(Cc1c[nH]c2ccccc12)NCC(O)COc1ccccc1C#N (stereo not shown) [bucindolol, reference compound]
- muscle fiber area, gastrocnemius ([2]; 2 mg/kg p.o.): increased muscle fiber area
- muscle fiber area, soleus ([2]; 2 mg/kg p.o.): increased muscle fiber area
- TNF-α level ([3]; 2 mg/kg p.o.): marginally higher
- creatine kinase level ([3]; 2 mg/kg p.o.): higher level
- serum LDL level ([3]; 2 mg/kg p.o.): non-significant change
- serum VLDL level ([3]; 2 mg/kg p.o.): significant decrease
- serum triglyceride level ([3]; bucindolol 2 mg/kg p.o.): significantly lower
- % tumor grow inhibition (TGI) ([3]; 2 mg/kg p.o., QD×3 weeks): 24%
- IL-6 level [3]: Non-significant
- kidney weight [3]: Non-significant
- lung weight [3]: Non-significant
- spleen weight [3]: Non-significant
- serum levels of TNF-α [3]: Non-Significant
- body weight ([3]; 2 mg/kg p.o., QD×3 weeks): progressive body weight gain
